Data as given in patent US8946299B2, “Use of calixarenes associated with an antibiotic in the treatment of bacterial infections” (Universite de Lorraine, priority 2011, dated 2015).

Experiments:
[1] = system: SaR3: Meticillin-Resistant Staphylococcus aureus; assay: Antibiogram by the disk diffusion technique; assay type: cell-based; settings: Table E1; strain SaR3
[2] = system: SaR1: Meticillin-Resistant Staphylococcus aureus without Associated Resistance; assay: Antibiogram by the VITEK 2 system; assay type: cell-based; settings: Table D1; strain SaR1
Description: 5.4 SaR1: Meticillin-Resistant Staphylococcus aureus without Associated Resistance
The bacterial and antibiogram identification is carried out by the VITEK 2 system (bioMérieux)
February 2006: Detection of the gene mecA by the PCR technique: POSITIVE Expert finding July 2006: totally typical phenotype: modification of the PLPs The fluctuations relative to the type of associated resistance for certain strains between Tables D1 and D2 are due to the development of the French (CA-SFM), European (EUCAST) and American (CLSI) recommendations for the categorization of bacterial strains. 5.5 SaR3: Meticillin-Resistant Staphylococcus aureus Having an Associated Resistance to the Aminoglycosides and Fluoroquinolones The bacterial and antibiogram identification is carried out by the VITEK 2 system (bioMérieux) and by the disk diffusion technique

[3] = system: MRSA strain without associated resistance (SaR1); assay: Chessboard technique: MICs alone and synergism of Cx1 combinations; assay type: cell-based, Staphylococcus aureus; settings: antibiotic used alone; second figure of the cell; n = 4
From the text: (§1) Three reference strains were used, corresponding to those studied for the MICs and MBCs (Minimum Bactericidal Concentration): Escherichia coli ATCC 25922, Staphylococcus aureus ATCC 29213, Pseudomonas aeruginosa ATCC 27853. For each of these strains 3 corresponding clinical isolates were chosen, having various antibiotic-resistance profiles, routinely used in standard fashion: • EcR1, EcR2, EcR3; • SaR1, SaR3, SaR4; • PaR2, PaR3, PaR5.
(§2) 1.3. Procedure: Chessboard Technique
(§3) The bacterial suspension is transferred to a 15 mL Falcon tube, centrifuged for 10 min at 4500 g, then the pellet is re-suspended in 1 mL of sterile distilled water. Suitable dilutions are then prepared in order to obtain a bacterial inoculum between 5·10^5 and 5·10^6 CFU/mL.
(§4) The MICs of the antibiotics were previously determined for each strain, by the method of microdilution in a liquid medium (CLSI (Clinical and Laboratory Standards Institute), 2003).
(§5) The same procedure is followed for the Cx1. […] Thus 64 ATB/Cx1 combinations are obtained.
(§6) The final volume contained in each of the wells must be 100 μL. Two controls must be present on each plate: • column 1 and 12: medium control • column 2 and 11: medium+bacteria control
(§7) Cx1: […] in the wells of […], starting with the lowest concentration.
(§8) ATB: 25 μL in the wells of rows H to A (columns 3 to 11), starting with the lowest concentration.
(§9) 50 μL in each of the wells of columns 2 to 11.
(§10) D2: Reading the Turbidity at 540 Nm.
(§11) The FIC (Fractional Inhibitory Concentration Index) value is determined by the following formula:
(§12) [formula] MICA in combination MICA alone MICB in combination MICB alone
(§13) When FIC≦0.5, there is a synergistic effect between antibiotic A and antibiotic B.
(§14) When 0.5<FIC≦1, there is an additive effect between antibiotic A and antibiotic B.
(§15) When 1<FIC≦4, there is an indifferent effect between antibiotic A and antibiotic B.
(§16) When FIC>4, there is an antagonistic effect between antibiotic A and antibiotic B.
(§17) For each strain and each antibiotic/Cx1 combination, the experiments were repeated a minimum of 3 times.

[4] = system: MRSA strain having a resistance to the aminoglycosides and fluoroquinolones (SaR3); assay: as above; assay type: cell-based, Staphylococcus aureus; settings: antibiotic used alone; second figure of the cell; n = 4
From the text: as §1, §2, §3, §4, §5, §6, §7, §8, §9, §10, §11, §12, §13, §14, §15, §16, §17

[5] = system: MRSA strain having a resistance to the aminoglycosides, fluoroquinolones, macrolides-lincosamides-synergistins and ofloxacin (SaR4); assay: as above; assay type: cell-based, Staphylococcus aureus; settings: antibiotic used alone; second figure of the cell; n = 4
From the text: as §1, §2, §3, §4, §5, §6, §7, §8, §9, §10, §11, §12, §13, §14, §15, §16, §17

[6] = system: Staphylococcus aureus strain ATCC 29213 (wild type); assay: as above; assay type: cell-based; settings: antibiotic used alone; second figure of the cell; n = 4
From the text: as §1, §2, §3, §4, §5, §6, §7, §8, §9, §10, §11, §12, §13, §14, §15, §16, §17

[7] = system: Escherichia coli, Staphylococcus aureus and Pseudomonas aeruginosa strains; assay: Chessboard technique, summary over all strains and combinations tested; assay type: cell-based
From the text: as §1, §2
The FIC (Fractional Inhibitory Concentration Index) value is determined by the following formula: […]
as §17

[8] = system: EcR1: Penicillinase-Producing Escherichia coli without Associated Resistance; assay: Antibiogram by the disk diffusion technique; assay type: cell-based
Description: (§18) 5. Identification and Antibiogram 5.1 EcR1: Penicillinase-Producing Escherichia coli without Associated Resistance
(§19) The bacterial and antibiogram identification is carried out by the VITEK 2 system (bioMérieux) and by the disk diffusion technique.

[9] = system: EcR1: Penicillinase-Producing Escherichia coli without Associated Resistance; assay: Antibiogram, MIC by the VITEK 2 system; assay type: cell-based; settings: Table A1, category from MIC
Description: as §18, §19

[10] = system: Escherichia coli strain ATCC 25922 (wild type); assay: Chessboard technique: MICs alone and synergism of Cx1 combinations; assay type: cell-based; settings: antibiotic used alone; second figure of the cell; n = 4
From the text: as §1, §2, §3, §4, §5, §6, §7, §8, §9, §10, §11, §12, §13, §14, §15, §16, §17

[11] = system: cephalosporinase-hyperproducing strain of Escherichia coli (EcR2); assay: as above; assay type: cell-based; settings: antibiotic used alone; second figure of the cell; n = 4
From the text: as §1, §2, §3, §4, §5, §6, §7, §8, §9, §10, §11, §12, §13, §14, §15, §16, §17

[12] = system: ESBL-producing strain of Escherichia coli (EcR3); assay: as above; assay type: cell-based; settings: antibiotic used alone; second figure of the cell; n = 4
From the text: as §1, §2, §3, §4, §5, §6, §7, §8, §9, §10, §11, §12, §13, §14, §15, §16, §17

[13] = system: penicillinase-producing strain of Escherichia coli without associated resistance (EcR1); assay: as above; assay type: cell-based; settings: antibiotic used alone; second figure of the cell; n = 4
From the text: as §1, §2, §3, §4, §5, §6, §7, §8, §9, §10, §11, §12, §13, §14, §15, §16, §17

[14] = system: PaR5: Pseudomonas aeruginosa; assay: Antibiogram by the disk diffusion technique; assay type: cell-based; set-up: unit not given here; settings: Table I1; strain PaR5
[15] = system: SaR4: Meticillin-Resistant Staphylococcus aureus; assay: Antibiogram by the disk diffusion technique; assay type: cell-based; settings: Table F2; strain SaR4; diameters
Description: 5.6 SaR4: Meticillin-Resistant Staphylococcus aureus Having an Associated Resistance to the Aminoglycosides, Fluoroquinolones, Macrolides-Lincosamines-Synergistins and Ofloxacin The bacterial and antibiogram identification is carried out by the VITEK 2 system (bioMérieux) and by the disk diffusion technique
5.7 PaR2: Pseudomonas aeruginosa Having an Associated Resistance to the β-Lactams, the Trimethoprim-Sulphamethoxazole Combination and Fosfomycin The bacterial and antibiogram identification is carried out by the VITEK 2 system (bioMérieux) and by the disk diffusion technique

Molecule: CC1(C)S[C@@H]2[C@H](NC(=O)Cc3ccccc3)C(=O)N2[C@H]1C(=O)O [Penicillin G]
- Diameter [1]: 26
- Diameter [2]: 28
- MIC (antibiotic) [3]: 0.5 µg/mL
- MIC (antibiotic) [4]: 0.5 µg/mL
- MIC (antibiotic) [5]: 4 µg/mL
- Initials MIC (antibiotic) [6]: 1 µg/mL

Molecule: Gentamicin
- nature of the interaction between Cx1 and the antibiotic [7]: synergism
- Diameter [1]: 20
- Diameter [2]: 23
- MIC (antibiotic) [3]: 0.25 µg/mL
- MIC (antibiotic) [4]: 0.125 µg/mL
- MIC (antibiotic) [5]: 0.25 µg/mL
- Results (diameter) ([8]; Table A1, category from diameter vs Dmin Dmax): Susceptible
- Diameter ([8]; Table A1, disk diffusion): 20
- Results (MIC) [9]: Susceptible
- Initial MICs (antibiotic) [10]: 0.125 mg/L
- Initials MIC (antibiotic) [6]: 0.25 µg/mL
- Initial MICs (antibiotic) [11]: 2/2 mg/L
- Initial MICs (antibiotic) [12]: 2/2 mg/L
- Initial MICs (antibiotic) [13]: 0.125 mg/L
- Diameter [14]: 25

Molecule: NC[C@H]1O[C@H](O[C@H]2[C@H](O)[C@@H](O[C@H]3O[C@H](CO)[C@@H](O)[C@H](N)[C@H]3O)[C@H](N)C[C@@H]2N)[C@H](O)[C@@H](O)[C@@H]1O [Kanamycin]
- diameter in mm [15]: 7 mm

Molecule: Pristinamycin
- Diameter [1]: 23
- Diameter [2]: 25
